{"source": "patent US9376391B2", "about": "“Difluoromethyl-nicotinic-tetrahydronaphthyl carboxamides as fungicides” (BAYER CROPSCIENCE AKTIENGESELLSCHAFT, priority 2012, dated 2016)", "key": {"[1]": {"assay": "log P by HPLC on reversed phase columns (EEC directive 79/831 Annex V.A8)", "assay_type": "physicochemical", "conditions": "Table 1, formula (I); HPLC/LC-MS at pH 2.7, 0.1% formic acid in water / acetonitrile, gradient 10% to 95%"}, "[2]": {"system": "Alternaria brassicae", "assay": "In vivo preventive test on Alternaria brassicae (leaf spot on radish)", "conditions": "dose 500 ppm, spray, graded 6 days after contamination vs control plants", "method_in_brief": "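Radish cv. Pernod Clair at cotyledon stage (grown 17 °C) sprayed with compound in acetone/tween/DMSO/water, then inoculated 24 h later with A. brassicae spores (50 000 spores per ml). Incubation 20 °C, 100% RH; % efficacy graded 6 days post-inoculation versus solvent-treated controls.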"}, "[3]": {"system": "Botrytis cinerea", "assay": "In vivo preventive test on Botrytis cinerea (grey mould), gherkin plants", "method_in_brief": "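Gherkin plants sprayed at Z11 cotyledon stage with compound in acetone/tween/DMSO/water, inoculated 24 h later with B. cinerea spores (50 000 spores per ml) in nutrient solution. Kept at 17° C., 90% relative humidity; % efficacy graded 4 to 5 days post-inoculation versus solvent-treated controls.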"}, "[4]": {"system": "Pyrenophora teres", "assay": "In vivo preventive test on Pyrenophora teres (net blotch on barley)", "procedure": "In Vivo Preventive Test on Pyrenophora teres (Net Blotch on Barley)\nThe active ingredients tested are prepared by homogenization in a mixture of acetone/tween/DMSO, and then diluted with water to obtain the desired active material concentration.\nBarley plants (“Plaisant” variety), sown in starter cups on a 50/50 peat soil-pozzolana substrate and grown at 22° C., are treated at the 1-leaf stage (10 cm height) by spraying with the active ingredient prepared as described above. Plants, used as controls, are treated with the mixture of acetone/tween/DMSO/water not containing the active material.\nAfter 24 hours, the plants are contaminated by spraying the leaves with an aqueous suspension of Pyrenophora teres spores (12 000 spores per ml). The spores are collected from a 12-day-old culture. The contaminated barley plants are incubated for 48 hours at 20° C. and at 100% relative humidity, and then for 12 days at 20° C. at 70-80% relative humidity.\nGrading (% of efficacy) is carried out 14 days after the contamination, in comparison with the control plants. plants."}, "[5]": {"system": "Septoria tritici", "assay": "In vivo preventive test on Septoria tritici (leaf spot on wheat)", "conditions": "500 ppm, preventive spray, wheat plants, grading 24 days after contamination", "method_in_brief": "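Wheat cv. Scipion sprayed preventively at 1-leaf stage; inoculated 24 h later with Septoria tritici spores (500 000 spores per ml). Incubation 72 h at 18 °C, 100% RH, then 21 days at 90% RH; % efficacy graded 24 days after contamination against solvent-treated controls.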"}, "[6]": {"system": "Sphaerotheca fuliginea", "assay": "In vivo preventive test on Sphaerotheca fuliginea (powdery mildew on cucurbits)", "method_in_brief": "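Gherkin plants at Z11 cotyledon stage were sprayed with compound in acetone/tween/DMSO/water. After 24 h they were inoculated with S. fuliginea spores (100 000 spores per ml) and incubated at about 20° C and 70-80% RH. Percent efficacy versus solvent-treated controls was scored 12 days post-inoculation.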"}, "[7]": {"system": "Uromyces appendiculatus", "assay": "In vivo preventive test on Uromyces appendiculatus (bean rust)", "conditions": "500 ppm, preventive spray, bean plants, grading 11 days after contamination", "method_in_brief": "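'Saxa' bean plants at the 2-leaf stage were sprayed with compound and inoculated 24 h later with U. appendiculatus spores (150 000 spores per ml). Plants were incubated 24 h at 20 °C and 100% RH, then 10 days at 20 °C and 70–80% RH. Percent efficacy versus solvent-treated controls was graded 11 days post-inoculation.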"}, "[8]": {"system": "Venturia inaequalis", "assay": "Venturia test (apples)/preventive", "assay_type": "in vivo", "conditions": "100 ppm of active ingredient, evaluated 10 days after inoculation", "procedure": "Venturia Test (Apples)/Preventive\nTo produce a suitable preparation of active compound, 1 part by weight of active compound is mixed with the stated amounts of solvent and emulsifier, and the concentrate is diluted with water to the desired concentration.\nTo test for preventive activity, young plants are sprayed with the preparation of active compound at the stated rate of application. After the spray coating has dried on, the plants are inoculated with an aqueous conidia suspension of the causal agent of apple scab (Venturia inaequalis) and then remain for 1 day in an incubation cabinet at approximately 20° C. and a relative atmospheric humidity of 100%.\nThe plants are then placed in a greenhouse at approximately 21° C. and a relative atmospheric humidity of approximately 90%.\nThe test is evaluated 10 days after the inoculation. 0% means an efficacy which corresponds to that of the untreated control, while an efficacy of 100% means that no disease is observed."}, "[9]": {"conditions": "dose 100 ppm of active ingredient, comparison with known compounds"}, "[10]": {"conditions": "dose 100 ppm, comparison with known compounds, same conditions"}}}
{"smiles": "CC1CC(C)(C)c2cccc(NC(=O)c3cccnc3C(F)F)c21", "note": "(centres unmarked) [Example 1]", "values": [{"measurement": "logP^[a]", "setting": "[1]", "result": "3.29^[a]"}, {"measurement": "Eff. %", "setting": "[2]", "result": 92, "unit": "%"}, {"measurement": "protection (in words)", "setting": "[3]; [9]", "result": "total protection"}, {"measurement": "Efficacy", "setting": "[3]; [10]", "result": 100, "unit": "%"}, {"measurement": "Eff. %", "setting": "[3]; dose 500 ppm, gherkin, spray, graded 4 to 5 days after contamination vs control plants", "result": 100, "unit": "%"}, {"measurement": "protection (in words)", "setting": "[4]; [9]", "result": "total protection"}, {"measurement": "Efficacy", "setting": "[4]; [10]", "result": 100, "unit": "%"}, {"measurement": "Eff. %", "setting": "[4]; dose 500 ppm, barley, spray, graded 14 days after contamination vs control plants", "result": 100, "unit": "%"}, {"measurement": "Eff. %", "setting": "[5]", "result": 100, "unit": "%"}, {"measurement": "Eff. %", "setting": "[6]; 500 ppm, preventive spray, gherkin plants, grading 12 days after contamination", "result": 100, "unit": "%"}, {"measurement": "protection (in words)", "setting": "[6]; [9]", "result": "total protection"}, {"measurement": "Efficacy", "setting": "[6]; dose 100 ppm, comparison with prior-art compounds, gherkin plants, grading 12 days after contamination", "result": 100, "unit": "%"}, {"measurement": "Eff. %", "setting": "[7]", "result": 100, "unit": "%"}, {"measurement": "Eff. %", "setting": "[8]", "result": 100, "unit": "%"}]}
